Reference: the kinase profiling compilation of Christmann-Franck et al. (2016)

Legend:
Test in all cases: KINOMEscan competition binding
Details in all cases: compound 10.0 µM
[1] = molecular target: PHKG1 (human) (UniProt Q16816)
[2] = molecular target: PIM3 (human) (UniProt Q86V86)
[3] = molecular target: LATS2 (human) (UniProt Q9NRM7)
[4] = molecular target: MAPKAPK2 (human) (UniProt P49137)
[5] = molecular target: FLT1 (human) (UniProt P17948)
[6] = molecular target: CAMK1D (human) (UniProt Q8IU85)
Chain of CAMK1D (human) (Q8IU85 whole entry, looked up): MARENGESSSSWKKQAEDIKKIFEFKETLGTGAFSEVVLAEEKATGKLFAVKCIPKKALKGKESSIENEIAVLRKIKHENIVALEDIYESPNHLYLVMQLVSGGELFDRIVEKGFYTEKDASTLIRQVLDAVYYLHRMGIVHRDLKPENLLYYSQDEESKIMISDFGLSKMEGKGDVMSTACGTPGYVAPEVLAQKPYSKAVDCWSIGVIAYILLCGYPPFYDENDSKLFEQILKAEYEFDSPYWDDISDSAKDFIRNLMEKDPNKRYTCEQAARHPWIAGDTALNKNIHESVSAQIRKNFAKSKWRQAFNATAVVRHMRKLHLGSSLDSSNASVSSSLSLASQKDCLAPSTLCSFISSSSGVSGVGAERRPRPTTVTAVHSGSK

[7] = molecular target: DCLK3 (human) (UniProt Q9C098)
[8] = molecular target: STK10 (human) (UniProt O94804)
[9] = molecular target: PRKG1 (human) (UniProt Q13976)
[10] = test system: KIT (human), P10721 [D816V]
[11] = molecular target: EPHA6 (human) (UniProt Q9UF33)
[12] = molecular target: PRKG2 (human) (UniProt Q13237)
[13] = molecular target: NUAK1 (human) (UniProt O60285)
Chain of NUAK1 (human) (O60285 whole entry, looked up): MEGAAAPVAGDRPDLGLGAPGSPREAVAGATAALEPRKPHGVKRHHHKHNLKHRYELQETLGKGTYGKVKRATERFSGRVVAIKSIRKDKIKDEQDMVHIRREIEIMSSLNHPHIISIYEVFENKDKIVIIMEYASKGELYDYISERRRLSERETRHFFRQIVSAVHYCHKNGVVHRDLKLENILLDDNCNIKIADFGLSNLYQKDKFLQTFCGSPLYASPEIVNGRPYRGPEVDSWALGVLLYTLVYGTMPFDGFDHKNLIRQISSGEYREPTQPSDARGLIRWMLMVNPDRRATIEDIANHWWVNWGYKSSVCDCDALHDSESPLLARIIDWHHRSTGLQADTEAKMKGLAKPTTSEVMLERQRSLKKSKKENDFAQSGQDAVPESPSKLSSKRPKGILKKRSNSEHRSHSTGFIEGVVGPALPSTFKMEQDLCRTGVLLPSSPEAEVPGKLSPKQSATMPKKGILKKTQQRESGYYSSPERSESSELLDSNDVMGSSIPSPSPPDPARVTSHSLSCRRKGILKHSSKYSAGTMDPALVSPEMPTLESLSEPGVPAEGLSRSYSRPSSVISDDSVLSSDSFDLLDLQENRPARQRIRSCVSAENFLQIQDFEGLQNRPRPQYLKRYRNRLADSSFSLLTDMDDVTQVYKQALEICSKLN

[14] = molecular target: TEK (human) (UniProt Q02763)
[15] = molecular target: MAPK15 (human) (UniProt Q8TD08)
[16] = molecular target: DAPK1 (human) (UniProt P53355)
[17] = molecular target: WEE1 (human) (UniProt P30291)
[18] = molecular target: RPS6KA2 KD1 (human) (UniProt Q15349)
[19] = molecular target: RPS6KA6 KD2 (human) (UniProt Q9UK32)
[20] = molecular target: RPS6KA5 KD2 (human) (UniProt O75582)
[21] = molecular target: AKT1 (human) (UniProt P31749)
[22] = molecular target: CAMK4 (human) (UniProt Q16566)
[23] = molecular target: MAP4K2 (human) (UniProt Q12851)
[24] = molecular target: ACVRL1 (human) (UniProt P37023)
[25] = molecular target: RIPK4 (human) (UniProt P57078)
[26] = molecular target: NEK2 (human) (UniProt P51955)
[27] = molecular target: LYN (human) (UniProt P07948)
[28] = molecular target: ERBB4 (human) (UniProt Q15303)
[29] = molecular target: CAMKK1 (human) (UniProt Q8N5S9)
[30] = molecular target: ANKK1 (human) (UniProt Q8NFD2)
[31] = molecular target: MAPKAPK5 (human) (UniProt Q8IW41)
[32] = molecular target: PRKCE (human) (UniProt Q02156)
[33] = molecular target: MYLK4 (human) (UniProt Q86YV6)
Chain of MYLK4 (human) (Q86YV6 whole entry, looked up): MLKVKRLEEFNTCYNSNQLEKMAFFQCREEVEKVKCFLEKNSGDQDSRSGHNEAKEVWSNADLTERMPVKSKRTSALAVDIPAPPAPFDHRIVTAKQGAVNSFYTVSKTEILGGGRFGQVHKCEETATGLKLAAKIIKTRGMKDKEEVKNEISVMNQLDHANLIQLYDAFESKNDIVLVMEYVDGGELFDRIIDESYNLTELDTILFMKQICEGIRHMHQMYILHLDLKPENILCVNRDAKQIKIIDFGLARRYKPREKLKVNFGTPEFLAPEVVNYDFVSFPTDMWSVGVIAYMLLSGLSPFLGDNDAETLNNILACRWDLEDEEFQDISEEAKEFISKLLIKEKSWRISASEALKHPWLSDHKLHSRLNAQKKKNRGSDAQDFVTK

[34] = molecular target: NTRK2 (human) (UniProt Q16620)
[35] = molecular target: RET (human) (UniProt P07949)
[36] = molecular target: DCLK2 (human) (UniProt Q8N568)
[37] = molecular target: CDK11B (human) (UniProt P21127)
[38] = molecular target: MAP3K12 (human) (UniProt Q12852)
Chain of MAP3K12 (human) (Q12852 whole entry, looked up): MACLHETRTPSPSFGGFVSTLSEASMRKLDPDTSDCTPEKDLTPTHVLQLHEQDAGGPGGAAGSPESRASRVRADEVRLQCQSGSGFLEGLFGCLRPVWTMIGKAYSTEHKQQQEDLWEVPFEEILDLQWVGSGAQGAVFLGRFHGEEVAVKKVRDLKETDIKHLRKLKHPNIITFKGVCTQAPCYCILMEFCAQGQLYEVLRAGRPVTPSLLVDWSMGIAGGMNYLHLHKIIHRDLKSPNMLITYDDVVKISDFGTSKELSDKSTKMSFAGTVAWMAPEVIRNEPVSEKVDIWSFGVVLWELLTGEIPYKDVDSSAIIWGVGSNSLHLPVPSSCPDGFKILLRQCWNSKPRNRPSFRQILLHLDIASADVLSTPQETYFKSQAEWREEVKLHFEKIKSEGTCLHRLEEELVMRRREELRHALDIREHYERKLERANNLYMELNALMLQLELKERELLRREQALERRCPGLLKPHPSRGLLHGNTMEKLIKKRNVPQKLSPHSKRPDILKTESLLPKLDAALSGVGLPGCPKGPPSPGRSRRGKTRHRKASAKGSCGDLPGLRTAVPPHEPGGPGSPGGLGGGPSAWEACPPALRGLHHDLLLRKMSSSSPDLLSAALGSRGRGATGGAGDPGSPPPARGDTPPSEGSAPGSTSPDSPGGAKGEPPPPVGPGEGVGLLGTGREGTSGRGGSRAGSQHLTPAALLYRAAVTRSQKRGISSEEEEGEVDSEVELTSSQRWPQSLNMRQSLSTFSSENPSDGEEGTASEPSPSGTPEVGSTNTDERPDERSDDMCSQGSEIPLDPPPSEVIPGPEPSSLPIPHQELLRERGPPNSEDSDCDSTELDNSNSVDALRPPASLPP

[39] = molecular target: ULK3 (human) (UniProt Q6PHR2)
[40] = molecular target: EPHB2 (human) (UniProt P29323)
Chain of EPHB2 (human) (P29323 whole entry, looked up): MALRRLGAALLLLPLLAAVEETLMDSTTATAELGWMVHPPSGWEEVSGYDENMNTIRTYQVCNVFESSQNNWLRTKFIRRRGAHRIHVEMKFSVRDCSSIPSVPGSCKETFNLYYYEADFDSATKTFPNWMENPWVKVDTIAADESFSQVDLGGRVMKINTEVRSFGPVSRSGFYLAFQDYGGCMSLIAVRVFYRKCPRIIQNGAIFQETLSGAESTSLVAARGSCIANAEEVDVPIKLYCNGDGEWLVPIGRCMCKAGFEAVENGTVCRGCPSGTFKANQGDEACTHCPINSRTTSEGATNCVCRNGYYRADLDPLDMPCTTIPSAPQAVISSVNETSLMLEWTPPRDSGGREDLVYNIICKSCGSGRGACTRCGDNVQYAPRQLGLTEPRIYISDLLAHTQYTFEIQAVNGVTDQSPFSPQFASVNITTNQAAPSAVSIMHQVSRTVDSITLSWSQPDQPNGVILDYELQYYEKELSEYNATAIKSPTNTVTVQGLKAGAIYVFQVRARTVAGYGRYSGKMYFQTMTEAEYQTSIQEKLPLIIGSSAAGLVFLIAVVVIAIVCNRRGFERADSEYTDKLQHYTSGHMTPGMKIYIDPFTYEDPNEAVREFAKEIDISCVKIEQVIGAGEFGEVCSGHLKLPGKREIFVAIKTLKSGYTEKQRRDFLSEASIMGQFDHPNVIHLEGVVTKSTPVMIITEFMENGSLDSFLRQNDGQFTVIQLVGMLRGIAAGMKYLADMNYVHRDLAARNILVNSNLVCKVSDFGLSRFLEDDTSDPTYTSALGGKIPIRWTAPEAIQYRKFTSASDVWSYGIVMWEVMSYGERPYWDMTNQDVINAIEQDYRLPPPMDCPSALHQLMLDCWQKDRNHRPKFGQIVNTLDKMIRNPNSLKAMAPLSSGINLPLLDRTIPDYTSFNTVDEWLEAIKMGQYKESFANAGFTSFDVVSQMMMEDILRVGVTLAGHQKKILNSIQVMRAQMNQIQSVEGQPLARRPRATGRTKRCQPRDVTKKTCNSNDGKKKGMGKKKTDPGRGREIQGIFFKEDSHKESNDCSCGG

Chain of FLT1 (human) (P17948 whole entry, looked up): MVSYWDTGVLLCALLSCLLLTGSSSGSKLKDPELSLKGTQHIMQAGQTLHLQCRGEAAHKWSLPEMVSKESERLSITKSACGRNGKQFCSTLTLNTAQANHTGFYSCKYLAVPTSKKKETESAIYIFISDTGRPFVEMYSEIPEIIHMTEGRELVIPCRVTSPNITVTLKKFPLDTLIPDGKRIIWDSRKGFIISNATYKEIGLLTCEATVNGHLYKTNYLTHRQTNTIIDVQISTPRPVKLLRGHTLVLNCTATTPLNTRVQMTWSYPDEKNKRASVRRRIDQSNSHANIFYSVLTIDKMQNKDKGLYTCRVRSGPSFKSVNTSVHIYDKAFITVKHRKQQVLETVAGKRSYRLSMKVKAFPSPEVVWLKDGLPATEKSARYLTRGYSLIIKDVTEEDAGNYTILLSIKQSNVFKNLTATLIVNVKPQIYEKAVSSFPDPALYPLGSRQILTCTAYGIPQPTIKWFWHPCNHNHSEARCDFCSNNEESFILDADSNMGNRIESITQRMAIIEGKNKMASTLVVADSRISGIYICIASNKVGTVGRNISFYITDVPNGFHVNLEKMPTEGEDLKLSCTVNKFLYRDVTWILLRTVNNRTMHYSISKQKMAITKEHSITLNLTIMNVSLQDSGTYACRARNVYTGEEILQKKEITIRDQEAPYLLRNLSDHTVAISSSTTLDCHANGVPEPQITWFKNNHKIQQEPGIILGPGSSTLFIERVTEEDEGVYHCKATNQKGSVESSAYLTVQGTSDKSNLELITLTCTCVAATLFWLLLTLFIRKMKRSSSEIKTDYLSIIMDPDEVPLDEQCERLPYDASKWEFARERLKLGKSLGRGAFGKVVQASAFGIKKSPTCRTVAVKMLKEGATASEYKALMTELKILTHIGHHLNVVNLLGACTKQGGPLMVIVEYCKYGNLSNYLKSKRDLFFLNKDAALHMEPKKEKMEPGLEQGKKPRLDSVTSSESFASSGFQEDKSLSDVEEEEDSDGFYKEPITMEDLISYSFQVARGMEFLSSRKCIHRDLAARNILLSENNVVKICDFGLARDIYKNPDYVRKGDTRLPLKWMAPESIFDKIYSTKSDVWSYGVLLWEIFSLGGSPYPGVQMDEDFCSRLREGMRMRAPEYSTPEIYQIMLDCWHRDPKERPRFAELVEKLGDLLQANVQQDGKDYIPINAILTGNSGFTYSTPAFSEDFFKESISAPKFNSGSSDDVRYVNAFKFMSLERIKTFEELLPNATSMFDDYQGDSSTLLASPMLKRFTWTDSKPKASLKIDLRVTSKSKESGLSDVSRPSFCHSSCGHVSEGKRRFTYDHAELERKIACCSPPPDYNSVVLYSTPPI
Chain of PHKG1 (human) (Q16816 whole entry, looked up): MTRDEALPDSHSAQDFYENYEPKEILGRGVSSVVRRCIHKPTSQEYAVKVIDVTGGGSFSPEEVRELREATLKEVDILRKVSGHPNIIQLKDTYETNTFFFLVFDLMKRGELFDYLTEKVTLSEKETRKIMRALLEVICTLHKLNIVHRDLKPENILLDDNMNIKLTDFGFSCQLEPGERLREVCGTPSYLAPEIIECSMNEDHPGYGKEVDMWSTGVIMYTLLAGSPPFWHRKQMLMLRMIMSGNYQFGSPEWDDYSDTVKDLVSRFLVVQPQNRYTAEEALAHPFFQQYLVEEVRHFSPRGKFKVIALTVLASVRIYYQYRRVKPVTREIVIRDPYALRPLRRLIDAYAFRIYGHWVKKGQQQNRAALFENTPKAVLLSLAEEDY

Compound	kinase still bound, per cent of control [1] [%]	kinase still bound, per cent of control [2] [%]	kinase still bound, per cent of control [3] [%]	kinase still bound, per cent of control [4] [%]	kinase still bound, per cent of control [5] [%]	kinase still bound, per cent of control [6] [%]	kinase still bound, per cent of control [7] [%]	kinase still bound, per cent of control [8] [%]	kinase still bound, per cent of control [9] [%]	kinase still bound, per cent of control [10] [%]	kinase still bound, per cent of control [11] [%]	kinase still bound, per cent of control [12] [%]	kinase still bound, per cent of control [13] [%]	kinase still bound, per cent of control [14] [%]	kinase still bound, per cent of control [15] [%]	kinase still bound, per cent of control [16] [%]	kinase still bound, per cent of control [17] [%]	kinase still bound, per cent of control [18] [%]	kinase still bound, per cent of control [19] [%]	kinase still bound, per cent of control [20] [%]	further results
COc1cc(C(=O)NC2CCN(C)CC2)ccc1Nc1ncc2c(n1)N(C1CCCC1)C(C)CC(=O)N2C (stereo not given)	100	100	100	100	100	17	100	29	100	100	100	100	100	100	100	26	100	100	12	100	kinase still bound, per cent of control [21]: 100%; kinase still bound, per cent of control [22]: 100%; kinase still bound, per cent of control [23]: 100%; kinase still bound, per cent of control [24]: 100%; kinase still bound, per cent of control [25]: 100%; kinase still bound, per cent of control [26]: 100%; kinase still bound, per cent of control [27]: 100%; kinase still bound, per cent of control [28]: 100%; kinase still bound, per cent of control [29]: 100%; kinase still bound, per cent of control [30]: 100%; kinase still bound, per cent of control [31]: 100%; kinase still bound, per cent of control [32]: 100%; kinase still bound, per cent of control [33]: 100%; kinase still bound, per cent of control [34]: 100%; kinase still bound, per cent of control [35]: 100%; kinase still bound, per cent of control [36]: 19%; kinase still bound, per cent of control [37]: 100%; kinase still bound, per cent of control [38]: 100%; kinase still bound, per cent of control [39]: 100%; kinase still bound, per cent of control [40]: 100%
C=CC(=O)Nc1cc(NC(=O)c2ccc(C)c(NC(=O)c3ccno3)c2)cc(C(F)(F)F)c1	92	100	88	100	100	83	100	100	100	78	93	94	100	100	100	80	100	100	79	90	kinase still bound, per cent of control [21]: 58%; kinase still bound, per cent of control [22]: 100%; kinase still bound, per cent of control [23]: 100%; kinase still bound, per cent of control [24]: 100%; kinase still bound, per cent of control [25]: 86%; kinase still bound, per cent of control [26]: 100%; kinase still bound, per cent of control [27]: 34%; kinase still bound, per cent of control [28]: 100%; kinase still bound, per cent of control [29]: 96%; kinase still bound, per cent of control [30]: 99%; kinase still bound, per cent of control [31]: 83%; kinase still bound, per cent of control [32]: 100%; kinase still bound, per cent of control [33]: 97%; kinase still bound, per cent of control [34]: 84%; kinase still bound, per cent of control [35]: 96%; kinase still bound, per cent of control [36]: 100%; kinase still bound, per cent of control [37]: 86%; kinase still bound, per cent of control [38]: 100%; kinase still bound, per cent of control [39]: 97%; kinase still bound, per cent of control [40]: 77%
